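Where inhibition never reached the appropriate level, the endpoint shown equals the highest concentration tested. Otherwise, values were interpolated linearly from a five-concentration, 48-hour dose response in 96-well plates. The concentration for 50% growth inhibition is given as GI50.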 Active and inactive are the calls of the source. Cut-off read from the data, not from the text of the source: active = GI50 up to about 1.1 µM and inactive = higher.
Experiments:
Assay in all cases: NCI-60 cell line screen, 48 h
786-0 = system: 786-0
A549 = system: A549
ACHN = system: ACHN
CAKI-1 = system: CAKI-1
CCRF-CEM = system: CCRF-CEM
COLO 205 = system: COLO 205
DLD-1 = system: DLD-1
DMS-114 = system: DMS-114
DMS-273 = system: DMS-273
EKVX = system: EKVX
HCC 2998 = system: HCC 2998
HCT-116 = system: HCT-116
HCT-15 = system: HCT-15
HL-60 = system: HL-60
HOP-62 = system: HOP-62
HOP-92 = system: HOP-92
HT-29 = system: HT-29
IGROV-1 = system: IGROV-1
K562 = system: K562
KM-20L2 = system: KM-20L2
KM12 = system: KM12
LOX IMVI = system: LOX IMVI
M14 = system: M14
M19-MEL = system: M19-MEL
Malme-3M = system: Malme-3M
NCI-H226 = system: NCI-H226
NCI-H23 = system: NCI-H23
NCI-H460 = system: NCI-H460
NCI-H522 = system: NCI-H522
OVCAR-3 = system: OVCAR-3
OVCAR-4 = system: OVCAR-4
OVCAR-5 = system: OVCAR-5
OVCAR-8 = system: OVCAR-8
RPMI-8226 = system: RPMI-8226
RXF 393 = system: RXF 393
RXF 631 = system: RXF 631
SF-268 = system: SF-268
SF-295 = system: SF-295
SF-539 = system: SF-539
SK-MEL-28 = system: SK-MEL-28
SK-MEL-2 = system: SK-MEL-2
SK-MEL-5 = system: SK-MEL-5
SK-OV-3 = system: SK-OV-3
SN12C = system: SN12C
SNB-19 = system: SNB-19
SNB-75 = system: SNB-75
SNB-78 = system: SNB-78
SR = system: SR
SW-620 = system: SW-620
TK-10 = system: TK-10
U-251 = system: U-251
UACC-257 = system: UACC-257
UACC-62 = system: UACC-62
UO-31 = system: UO-31
XF498 = system: XF498
A498 = system: A498
HOP-18 = system: HOP-18
LXFL 529 = system: LXFL 529
MOLT-4 = system: MOLT-4

Measured: GI50

CC(C)(C)[C@H]1CO[C@]2(C)[C@@H]3C[C@@H]3C(=O)N12
inactive: 786-0 > 100 µM | A549 > 100 µM | ACHN > 100 µM | CAKI-1 > 100 µM | CCRF-CEM > 100 µM | COLO 205 > 100 µM | DLD-1 > 100 µM | DMS-114 > 100 µM | DMS-273 > 100 µM | EKVX > 100 µM | HCC 2998 > 100 µM | HCT-116 > 100 µM | HL-60 > 100 µM | HOP-62 > 100 µM | HOP-92 > 100 µM | HT-29 > 100 µM | IGROV-1 > 100 µM | K562 > 100 µM | KM-20L2 > 100 µM | KM12 > 100 µM | LOX IMVI > 100 µM | M14 > 100 µM | M19-MEL > 100 µM | Malme-3M > 100 µM | NCI-H226 > 100 µM | NCI-H23 > 100 µM | NCI-H460 > 100 µM | NCI-H522 > 100 µM | OVCAR-3 > 100 µM | OVCAR-4 > 100 µM | OVCAR-5 > 100 µM | OVCAR-8 > 100 µM | RPMI-8226 > 100 µM | RXF 393 > 100 µM | RXF 631 > 100 µM | SF-268 > 100 µM | SF-295 > 100 µM | SF-539 > 100 µM | SK-MEL-28 > 100 µM | SK-MEL-2 > 100 µM | SK-MEL-5 > 100 µM | SK-OV-3 > 100 µM | SN12C > 100 µM | SNB-19 > 100 µM | SNB-75 > 100 µM | SNB-78 > 100 µM | SR > 100 µM | SW-620 > 100 µM | TK-10 > 100 µM | U-251 > 100 µM | UACC-257 > 100 µM | UACC-62 > 100 µM | UO-31 > 100 µM | XF498 > 100 µM
> 100 µM: HCT-15

COc1cc(CC(=O)c2ccc3c(c2)OCO3)cc(OC)c1OC
> 100 µM: HCT-15
inactive: 786-0 > 100 µM | A498 > 100 µM | A549 > 100 µM | ACHN > 100 µM | CAKI-1 > 100 µM | CCRF-CEM > 100 µM | COLO 205 > 100 µM | DLD-1 > 100 µM | DMS-114 27.9 µM | EKVX > 100 µM | HCC 2998 > 100 µM | HCT-116 > 100 µM | HL-60 > 100 µM | HOP-18 > 100 µM | HOP-62 > 100 µM | HOP-92 > 100 µM | HT-29 > 100 µM | IGROV-1 > 100 µM | K562 93.5 µM | KM-20L2 > 100 µM | KM12 68.4 µM | LOX IMVI > 10 µM | LXFL 529 > 100 µM | M14 > 100 µM | M19-MEL > 100 µM | MOLT-4 > 100 µM | Malme-3M > 100 µM | NCI-H226 > 100 µM | NCI-H23 > 100 µM | NCI-H460 73.3 µM | NCI-H522 > 100 µM | OVCAR-3 > 100 µM | OVCAR-4 > 100 µM | OVCAR-5 > 100 µM | OVCAR-8 > 100 µM | RPMI-8226 44 µM | RXF 393 62.5 µM | RXF 631 53.7 µM | SF-268 > 100 µM | SF-295 > 100 µM | SF-539 > 100 µM | SK-MEL-28 > 100 µM | SK-MEL-2 > 100 µM | SK-MEL-5 > 100 µM | SK-OV-3 > 100 µM | SN12C > 100 µM | SNB-19 > 100 µM | SNB-75 > 100 µM | SNB-78 > 100 µM | SW-620 19.3 µM | TK-10 > 100 µM | U-251 46.6 µM | UACC-257 > 100 µM | UACC-62 > 100 µM | UO-31 > 100 µM
